US6506339B1, “Method of sterilization” (Biomedical Design, Inc., priority 1997, dated 2003)

Legend:
Bacillus Subtilis spores = test: Sterilization test, Bacillus subtilis spores in cups with or without fixed heart valves, 40° C. (Example 2); assay type: cell-based; parameters: key: (+) Indicates growth; (−) indicates no growth or complete kill; conditions: 20 mM EDC+1 mM Sulfo-NHS, 20% isopropyl alcohol
Experimental: (§1) Porcine aortic roots are fixed by cross-linking according to the method described in U.S. Pat. No. 5,447,536. After fixation, the valves are stored in 10 mM HEPES, 0.85% NaCl, 20% isopropyl alcohol, pH 7.4, at 4° C. The sterility tests described in the following examples are in most cases conducted in the presence of bioprosthetic heart valve tissue; when such tissue is not present, the solutions are simply filtered through a 0.45 micron filter attached to a funnel (filter funnel). The filters are then rinsed with peptone water to eliminate residual chemicals on the membrane that may prevent growth of the organisms tested. Such membrane filters are then incubated on TSA plates at about 32° to 33° C., e.g. 32.5° C. When an aortic valve is inoculated with microorganisms for test purposes and then submitted to sterilization, the solution is filtered as described above. The aortic valve tissue is then washed for 20 minutes in a reciprocating shaker in the presence of peptone water containing Tween 80 in order to extract all indigenous spores or microorganisms from the tissue. This solution is filtered and then incubated as described above. All microbiological testing is performed in a biological laminar flow hood to prevent contamination. The shrinkage temperature and the proteolytic (collagenase and protease) degradation tests are conducted as previously described in the '536 patent. Resistance to calcification is assessed by subdermal implantation of sterilized leaflets and aortic wall coupons in young rats, as also described in the '536 U.S. patent.
A sterilization process similar to Example 1 is carried out using Bacillus Subtilis spores (˜10^6) inoculated in sterile cups some of which contain cross-linked heart valves that had been fixed by a process according to U.S. Pat. No. 5,447,536. A 10 mM HEPES, 0.85% NaCl, pH 6.5 solution containing 20 mM EDC and 1 mM Sulfo-NHS in the presence of 20% isopropyl alcohol was added for various periods of time (treatment duration). The cups and the heart valves were maintained at 40° C. for the term of the treatment. The solutions were then filtered and the filters incubated for up to 7 days (incubation duration) at about 32-33° C. using Trypticase Soy Agar (TSA) plates. All inoculations were done in duplicate.

[1] = test system: Mycobacterium Chelonae ATCC 35752; test: Sterilization test, Mycobacterium chelonae in sterile cups at room temperature (Example 1); assay type: cell-based; parameters: key: (+) Indicates growth; (−) indicates no growth or complete kill; conditions: 10 mM EDC+1 mM Sulfo-NHS, 20% isopropyl alcohol
Experimental: as §1
Mycobacterium Chelonae ATCC 35752 (˜10^5) was inoculated in sterile cups. A 10 mM HEPES, 0.85% NaCl, pH 6.5 solution containing 10 mM EDC and 1 mM Sulfo-NHS in the presence or absence of 20% isopropyl alcohol was maintained in contact with the bacteria in the cups for various periods of time (treatment duration). The cups were maintained at room temperature, and the solutions were then filtered. The filters were then incubated at about 32-33° C. for up to 6 weeks (incubation duration) using either Trypticase Soy Agar (TSA) plates or Trypticase Soy Broth (TSB). All inoculations were done in duplicate.

[2] = test system: Methylbacterium extorquens ATCC 43645 vegetative cells; test: Sterilization in cups at about 38° C. (Example 6); assay type: cell-based, Methylobacterium extorquens; conditions: 25 mM EDC, 20% isopropanol, inoculum Log 10 6.94
Experimental: In view of the foregoing verification, it was decided to test the effectiveness of the sterilization process against other bacteria using sterile cups. Added to each of the cups is 20 ml of 10 mM HEPES, 0.85%, Nacl, 20% isopropanol, pH 6.5, containing 25 mM EDC without any coupling enhancer, before the cups are placed in a incubator at about 38° C. When the solution temperature reached about 38° C., approximately 10^5-10^6 organisms were inoculated into the solution. The tests were carried out in triplicate. The following four isolated were tested in the form of sporous suspensions: Clostridium sporogenes ATCC 3584, Bacillus pumilus ATCC 27142, Chaetonium globosom ATCC 6205, and Microacus cinereus ATCC 16594. The following three isolates were tested as vegetative cells: Mycobacterium chelonae ATCC 35752, Methylbacterium extorquens ATCC 43645 and Trichosporon aquatile ATCC 22310. The inoculated systems were allowed to incubate for 1 hour, for 5 hours or for 24 hours, and the solutions were then filtered through a 0.45 micron filter. After rinsing, the filter was placed on a TSA plate as described in Example 1. Negative and positive controls indicate that the tests were valid. The results are set forth in Table D which follows wherein the number of CFUs in the inoculum is expressed as its log to the base 10, e.g. 3.4×10^5=5.5: […]

With `CCN=C=NCCCN(C)C.Cl` [EDC, 1-ethyl-3(3-dimethylaminopropyl)carbodiimide hydrochloride] the “growth on TSA plates” value (Bacillus Subtilis spores; with valves, treatment 48 hours, incubation 1 Day) was “−”, the “growth on TSA plates” value (Bacillus Subtilis spores; with valves, treatment 48 hours, incubation 7 Days) was “−” and the “growth on TSA plates” value (Bacillus Subtilis spores; with valves, treatment 72 hours, incubation 1 Day) was “−”. The “growth on TSA plates” value (Bacillus Subtilis spores; with valves, treatment 72 hours, incubation 7 Days) was “−”, the “growth on TSA plates” value (Bacillus Subtilis spores; without valves, treatment 24 hours, incubation 1 Day) was “−” and the “growth on TSA plates” value (Bacillus Subtilis spores; without valves, treatment 24 hours, incubation 7 Days) was “−”. For the same compound, the “growth on TSA plates” value (Bacillus Subtilis spores; without valves, treatment 48 hours, incubation 1 Day) was “−”, the “growth on TSA plates” value (Bacillus Subtilis spores; without valves, treatment 48 hours, incubation 7 Days) was “−” and the “growth on TSA plates” value (Bacillus Subtilis spores; without valves, treatment 72 hours, incubation 1 Day) was “−”. The “growth on TSA plates” value (Bacillus Subtilis spores; without valves, treatment 72 hours, incubation 7 Days) was “−”, the growth ([1]; treatment 0 hour, incubation 1 Day, TSA) was “−,−” and the growth ([1]; treatment 0 hour, incubation 1 Day, TSB) was “−,−”. The growth ([1]; treatment 0 hour, incubation 1 Week, TSA) was “−,−”, the growth ([1]; treatment 0 hour, incubation 1 Week, TSB) was “−,−” and the growth ([1]; treatment 12 hours, incubation 1 Day, TSA) was “−,−”. For the same compound, the growth ([1]; treatment 12 hours, incubation 1 Day, TSB) was “−,−”, the growth ([1]; treatment 12 hours, incubation 1 Week, TSA) was “−,−” and the growth ([1]; treatment 12 hours, incubation 1 Week, TSB) was “−,−”. For the same compound, the growth ([1]; treatment 12 hours, incubation 3 Week, TSA) was “−,−”, the growth ([1]; treatment 12 hours, incubation 3 Week, TSB) was “−,−” and the growth ([1]; treatment 12 hours, incubation 4 Week, TSA) was “−,−”. For the same compound, the growth ([1]; treatment 12 hours, incubation 4 Week, TSB) was “−,−”, the growth ([1]; treatment 12 hours, incubation 6 Week, TSA) was “−,−” and the growth ([1]; treatment 12 hours, incubation 6 Week, TSB) was “−,−”. The growth ([1]; treatment 24 hours, incubation 1 Day, TSA) was “−,−”, the growth ([1]; treatment 24 hours, incubation 1 Day, TSB) was “−,−” and the growth ([1]; treatment 24 hours, incubation 1 Week, TSA) was “−,−”. The growth ([1]; treatment 24 hours, incubation 1 Week, TSB) was “−,−”, the growth ([1]; treatment 24 hours, incubation 3 Week, TSA) was “−,−” and the growth ([1]; treatment 24 hours, incubation 3 Week, TSB) was “−,−”. For the same compound, the growth ([1]; treatment 24 hours, incubation 4 Week, TSA) was “−,−”, the growth ([1]; treatment 24 hours, incubation 4 Week, TSB) was “−,−” and the growth ([1]; treatment 24 hours, incubation 6 Week, TSA) was “−,−”. The growth ([1]; treatment 24 hours, incubation 6 Week, TSB) was “−,−”, the growth ([1]; treatment 48 hours, incubation 1 Day, TSA) was “−,−” and the growth ([1]; treatment 48 hours, incubation 1 Day, TSB) was “−,−”. For the same compound, the growth ([1]; treatment 48 hours, incubation 1 Week, TSA) was “−,−”, the growth ([1]; treatment 48 hours, incubation 1 Week, TSB) was “−,−” and the growth ([1]; treatment 48 hours, incubation 3 Week, TSA) was “−,−”. The growth ([1]; treatment 48 hours, incubation 3 Week, TSB) was “−,−”, the growth ([1]; treatment 48 hours, incubation 4 Week, TSA) was “−,−” and the growth ([1]; treatment 48 hours, incubation 4 Week, TSB) was “−,−”. The growth ([1]; treatment 48 hours, incubation 6 Week, TSA) was “−,−”, the growth ([1]; treatment 48 hours, incubation 6 Week, TSB) was “−,−” and the growth ([1]; treatment 72 hours, incubation 1 Day, TSA) was “−,−”. The growth ([1]; treatment 72 hours, incubation 1 Day, TSB) was “−,−”, the growth ([1]; treatment 72 hours, incubation 1 Week, TSA) was “−,−” and the growth ([1]; treatment 72 hours, incubation 1 Week, TSB) was “−,−”. For the same compound, the growth ([1]; treatment 72 hours, incubation 3 Week, TSA) was “−,−”, the growth ([1]; treatment 72 hours, incubation 3 Week, TSB) was “−,−” and the growth ([1]; treatment 72 hours, incubation 4 Week, TSA) was “−,−”. For the same compound, the growth ([1]; treatment 72 hours, incubation 4 Week, TSB) was “−,−”, the growth ([1]; treatment 72 hours, incubation 6 Week, TSA) was “−,−” and the growth ([1]; treatment 72 hours, incubation 6 Week, TSB) was “−,−”. For the same compound, the “Log REDUCTION” value ([2]; 1 Hour) was 6.94 and the “Log REDUCTION” value ([2]; 5 Hours) was 6.94.
